Data set [1] in a line: Binding affinity to amyloid beta (1 to 42) after 3 hrs using [125I]IMSB by gamma counter method.
Data set [2] can be described thus: Ratio of drug uptake in hippocampus to cerebellum in transgenic Tg2576 mouse brain. The note with it: in vivo.
The nature of data set [3]: Binding affinity to amyloid beta (1 to 40) after 3 hrs using [125I]IMSB by gamma counter method.
Data set [4] concerns Femur. In words: Biodistribution in ICR mouse Femur at 1.11 MBq, iv after 30 mins. The data set is classed as ADME, organism-based. The note with it: in vivo, 0.5 h.
Data set [5] has as its system Muscle tissue. Kind of data set: Biodistribution in ICR mouse Muscle at 1.11 MBq, iv after 120 mins. It is filed as ADME, organism-based. The note with it: in vivo, 2 h.
Data set [6] concerns Spleen. In words: Biodistribution in ICR mouse Spleen at 1.11 MBq, iv after 120 mins. It is filed as ADME, organism-based. The note with it: in vivo, 2 h.
Data set [7] deals with Blood. Kind of data set: Biodistribution in ICR mouse blood at 1.11 MBq, iv after 120 mins. It is filed as ADME, organism-based. The note with it: in vivo, 2 h.
The subject of data set [8] is Brain. In words: Biodistribution in ICR mouse Brain at 1.11 MBq, iv after 60 mins. The data set is classed as ADME, organism-based. The note with it: in vivo, 1 h.
Data set [9] concerns Blood. Kind of data set: Biodistribution in ICR mouse blood at 1.11 MBq, iv after 2 mins. The note with it: in vivo. It is filed as ADME, organism-based.
Data set [10] has as its system Femur. In words: Biodistribution in ICR mouse Femur at 1.11 MBq, iv after 2 mins. The data set is classed as ADME, organism-based. The note with it: in vivo.
The test system of data set [11] is Muscle tissue. In words: Biodistribution in ICR mouse Muscle at 1.11 MBq, iv after 30 mins. It is filed as ADME, organism-based. The note with it: in vivo, 0.5 h.
The test system of data set [12] is Lung. Kind of data set: Biodistribution in ICR mouse Lung at 1.11 MBq, iv after 2 mins. The data set is classed as ADME, organism-based. The note with it: in vivo.
Data set [13] has as its system Lung. Kind of data set: Biodistribution in ICR mouse Lung at 1.11 MBq, iv after 30 mins. It is filed as ADME, organism-based. The note with it: in vivo, 0.5 h.
In data set [14] the test system is Spleen. In words: Biodistribution in ICR mouse Spleen at 1.11 MBq, iv after 30 mins. The data set is classed as ADME, organism-based. The note with it: in vivo, 0.5 h.
Data set [15] has as its system Brain. In words: Biodistribution in ICR mouse Brain at 1.11 MBq, iv after 30 mins. It is filed as ADME, organism-based. The note with it: in vivo, 0.5 h.
The subject of data set [16] is Liver. Kind of data set: Biodistribution in ICR mouse Liver at 1.11 MBq, iv after 2 mins. The note with it: in vivo. It is filed as ADME, organism-based.
The subject of data set [17] is Femur. In words: Biodistribution in ICR mouse Femur at 1.11 MBq, iv after 120 mins. It is filed as ADME, organism-based. The note with it: in vivo, 2 h.
Data set [18] concerns Heart. Kind of data set: Biodistribution in ICR mouse heart at 1.11 MBq, iv after 120 mins. The data set is classed as ADME, organism-based. The note with it: in vivo, 2 h.
Data set [19] can be described thus: Octanol-water partition coefficient, log P of the compound by TLC analysis. The data set is classed as physicochemical.
Data set [20] has as its system Brain. Kind of data set: Biodistribution in ICR mouse Brain at 1.11 MBq, iv after 120 mins. The data set is classed as ADME, organism-based. The note with it: in vivo, 2 h.
The subject of data set [21] is Femur. In words: Biodistribution in ICR mouse Femur at 1.11 MBq, iv after 60 mins. It is filed as ADME, organism-based. The note with it: in vivo, 1 h.
Data set [22] deals with Blood. In words: Biodistribution in ICR mouse blood at 1.11 MBq, iv after 30 mins. The data set is classed as ADME, organism-based. The note with it: in vivo, 0.5 h.
Data set [23] deals with Heart. In words: Biodistribution in ICR mouse heart at 1.11 MBq, iv after 2 mins. The data set is classed as ADME, organism-based. The note with it: in vivo.
In data set [24] the test system is Brain. Kind of data set: Biodistribution in ICR mouse Brain at 1.11 MBq, iv after 2 mins. The data set is classed as ADME, organism-based. The note with it: in vivo.
Data set [25] relates to Heart. Kind of data set: Biodistribution in ICR mouse heart at 1.11 MBq, iv after 60 mins. It is filed as ADME, organism-based. The note with it: in vivo, 1 h.
Data set [26] has as its system Heart. Kind of data set: Biodistribution in ICR mouse heart at 1.11 MBq, iv after 30 mins. The note with it: in vivo, 0.5 h. The data set is classed as ADME, organism-based.
For data set [27], the system named is Kidney. In words: Biodistribution in ICR mouse Kidney at 1.11 MBq, iv after 30 mins. It is filed as ADME, organism-based. The note with it: in vivo, 0.5 h.
The test system of data set [28] is Kidney. In words: Biodistribution in ICR mouse Kidney at 1.11 MBq, iv after 60 mins. The data set is classed as ADME, organism-based. The note with it: in vivo, 1 h.
The subject of data set [29] is Spleen. Kind of data set: Biodistribution in ICR mouse Spleen at 1.11 MBq, iv after 60 mins. It is filed as ADME, organism-based. The note with it: in vivo, 1 h.
Data set [30] relates to Kidney. In words: Biodistribution in ICR mouse Kidney at 1.11 MBq, iv after 2 mins. The note with it: in vivo. It is filed as ADME, organism-based.
Data set [31] concerns Lung. In words: Biodistribution in ICR mouse Lung at 1.11 MBq, iv after 120 mins. It is filed as ADME, organism-based. The note with it: in vivo, 2 h.
Data set [32] concerns Spleen. In words: Biodistribution in ICR mouse Spleen at 1.11 MBq, iv after 2 mins. It is filed as ADME, organism-based. The note with it: in vivo.
In data set [33] the test system is Muscle tissue. Kind of data set: Biodistribution in ICR mouse Muscle at 1.11 MBq, iv after 60 mins. It is filed as ADME, organism-based. The note with it: in vivo, 1 h.
The subject of data set [34] is Kidney. In words: Biodistribution in ICR mouse Kidney at 1.11 MBq, iv after 120 mins. The data set is classed as ADME, organism-based. The note with it: in vivo, 2 h.
The test system of data set [35] is Liver. In words: Biodistribution in ICR mouse Liver at 1.11 MBq, iv after 120 mins. The note with it: in vivo, 2 h. The data set is classed as ADME, organism-based.
Data set [36] relates to Liver. In words: Biodistribution in ICR mouse Liver at 1.11 MBq, iv after 60 mins. The data set is classed as ADME, organism-based. The note with it: in vivo, 1 h.
Data set [37] deals with Blood. In words: Biodistribution in ICR mouse blood at 1.11 MBq, iv after 60 mins. The data set is classed as ADME, organism-based. The note with it: in vivo, 1 h.
In data set [38] the test system is Muscle tissue. Kind of data set: Biodistribution in ICR mouse Muscle at 1.11 MBq, iv after 2 mins. The data set is classed as ADME, organism-based. The note with it: in vivo.
For data set [39], the system named is Lung. In words: Biodistribution in ICR mouse Lung at 1.11 MBq, iv after 60 mins. The note with it: in vivo, 1 h. It is filed as ADME, organism-based.
Data set [40] relates to Liver. In words: Biodistribution in ICR mouse Liver at 1.11 MBq, iv after 30 mins. The data set is classed as ADME, organism-based. The note with it: in vivo, 0.5 h.
Data set [41] deals with Mus musculus. Kind of data set: In vivo binding affinity to amyloid beta (1 to 42) in double transgenic APP/PS-1 mouse brain at 100 uM after 30 mins by microscopy. The data set is classed as functional, organism-based.
Data set [42] deals with Mus musculus. In words: In vivo binding affinity to amyloid beta (1 to 42) in wild type mouse brain at 100 uM after 30 mins by microscopy. It is filed as functional, organism-based.

These results are taken from ChEMBL document CHEMBL1833866, “Synthesis and evaluation of 1-(4-[¹⁸F]fluoroethyl)-7-(4'-methyl)curcumin with improved brain permeability for β-amyloid plaque imaging” (Bioorg Med Chem Lett, 2011).

SMILES strings stand for the structures. Active and inactive are the calls of the source. The rule behind the calls is not given here.

Usually Ki stands for the equilibrium dissociation constant of an inhibitor or competing ligand from its target. Read a low Ki as higher affinity. For the compound `COc1cc(/C=C/C(=O)/C=C(O)/C=C/c2ccc(OCCOCCOCCF)c(OC)c2)ccc1O`, in data set [1], the Ki came out at 4.44 nM.

In data set [1], `COc1ccc(/C=C/C(=O)/C=C(O)/C=C/c2ccc(OCCCF)c(OC)c2)cc1OC` came in with a Ki of 2.69 nM. This Ki lies about 1.7-fold lower than the previous one.

For the compound `COc1cc(/C=C/C(O)=C/C(=O)/C=C/c2ccc(OCCC[18F])c(OC)c2)ccc1O`, in data set [2], the Ratio was found to be 3. This compound also returned a Ki in data set [3] of 0.07 nM.

As to `[11CH3]Nc1ccc(-c2nc3ccc(O)cc3s2)cn1`, affinity in data set [1] was put at a Ki of 1.7 nM. This counts as single-digit nanomolar.

For orientation: logP means the decadic logarithm of the partition coefficient of the neutral form, usually between octanol and water. As for `COc1ccc(/C=C/C(=O)/C=C(O)/C=C/c2ccc(OCC[18F])c(OC)c2)cc1OC`, the Drug uptake in data set [4] is given as 1.08 % ID/g; in [5], 0.37 % ID/g; in [6] it was 8.08 % ID/g; in data set [7], 0.67 % ID/g; in data set [8] it was 0.43 % ID/g; in data set [9], 9.76 % ID/g. For the same compound, the Drug uptake is 1.86 % ID/g in data set [10]; 0.76 % ID/g in data set [11]; 23.78 % ID/g in [12]; 3.94 % ID/g in data set [13]; 20.8 % ID/g in data set [14]; 0.45 % ID/g in data set [15]. The Drug uptake in [16] turned out to be 38.83 % ID/g; in data set [17], 1.62 % ID/g; in [18], 1.54 % ID/g; in data set [20], 0.29 % ID/g; in [21] it was 1 % ID/g; in data set [22] it was 1.26 % ID/g. For the same compound, the Drug uptake in [23] is recorded as 7.18 % ID/g; in [24], 1.44 % ID/g; in [25], 1.3 % ID/g; in data set [26], 1.68 % ID/g; in data set [27], 4.01 % ID/g; in data set [28], 2.25 % ID/g. Besides, the Drug uptake stood at 10.59 % ID/g in data set [29]; 10.95 % ID/g in data set [30]; 2.19 % ID/g in [31]; 16.41 % ID/g in [32]; 0.47 % ID/g in data set [33]; 1.42 % ID/g in data set [34]. Also, the Drug uptake in [35] worked out at 12.51 % ID/g; in [36], 26.83 % ID/g; in [37], 0.89 % ID/g; in data set [38], 0.89 % ID/g; in data set [39], 2.27 % ID/g; in [40] it was 43.02 % ID/g. The same compound yielded a logP in data set [19] of 2.4.

Usually Kd stands for a measure of binding affinity in units of concentration. A high value points to a looser complex. Compound `COc1ccc(/C=C/c2ccc(/C=C/c3ccc(OC)c(C(=O)O)c3)c([125I])c2)cc1C(=O)O` had a Kd in [1] of 1.19 nM. This lies in the single-digit nanomolar range.

In turn, `COc1ccc(/C=C/C(=O)/C=C(O)/C=C/c2ccc(OCCOCCF)c(OC)c2)cc1OC` came in with a Ki in data set [1] of 3.01 nM.

The compound `COc1cc(/C=C/C(=O)/C=C(O)/C=C/c2ccc(OCCOCCF)c(OC)c2)ccc1O` yielded a Ki in data set [1] of 4.65 nM.

On to `COc1ccc(/C=C/C(=O)/C=C(O)/C=C/c2ccc(OCCF)c(OC)c2)cc1OC`, for which, in data set [41], the result was Active. Besides, in data set [1], the affinity corresponds to a Ki of 2.12 nM. The result in data set [42] was inactive.

In data set [1], `COc1cc(/C=C/C(=O)CC(=O)/C=C/c2ccc(O)c(OC)c2)ccc1O` [CURCUMIN] displayed a Ki of 3.57 nM.

On to `[11CH3]Nc1ccc(-c2nc3ccc(O)cc3s2)cc1` [PITTSBURGH COMPOUND B], for which the Ki in data set [1] worked out at […].

In data set [1], `O=C(O)c1cc(/N=N/c2ccc(-c3ccc(/N=N/c4ccc(O)c(C(=O)O)c4)cc3)cc2)ccc1O` [CHRYSAMINE G] displayed an inhibition constant Ki of 0.43 nM.
